Values quoted from earlier work in patent US20160331866A1, “TISSUE REGENERATION MEMBRANE FOR REPAIR AND REGENERATION OF PERIPHERAL NERVE” (NATIONAL CHENG KUNG UNIVERSITY, priority 2015, published 2016).

Settings: conventionally oral dose form

| Compound | concentration of the active ingredient in the blood |
| --- | --- |
| COc1ccc2c(c1)c(CC(=O)O)c(C)n2C(=O)c1ccc(Cl)cc1 [Indomethacin] | 160 µM |
| CC(C)(O)c1ccccc1CC[C@@H](SCC1(CC(=O)O)CC1)c1cccc(/C=C/c2ccc3ccc(Cl)cc3n2)c1 [Montelukast] | 0.02 µg/mL |
| CC(c1cc2ccccc2s1)N(O)C(N)=O (stereo not shown) [Zileuton] | 8.46 to 25.38 µM |
| CC(=O)Oc1ccccc1C(=O)O [aspirin, acetylsalicylic acid] | 832 to 1660 µM |
